Source: ChEMBL document CHEMBL4840338, “Cudraflavone C from Artocarpus hirsutus as a Promising Inhibitor of Pathogenic, Multidrug-Resistant S. aureus, Persisters, and Biofilms: A New Insight into a Rational Explanation of Traditional Wisdom” (J Nat Prod, 2021)
In brackets after ≈: the same amount, converted by molar mass. Activity calls are given as the source filed them. The rule behind the calls is not given here.

Key:
Staphylococcus aureus [1] = assay: Antibacterial activity against Staphylococcus aureus ATCC 29213 assessed as fractional inhibitory concentration in presence of daptomycin incubated for 24 hrs by checkerboard assay; type: functional
Staphylococcus aureus [2] = assay: Antibacterial activity against Staphylococcus aureus ATCC 29213 assessed as time for post-antibiotic effect at 10XMIC incubated for 1 hr followed by drug wash-out and measured every single 1 hr; type: functional
Enterococcus [3] = assay: Antibacterial activity against vancomycin-resistant Enterococcus NR 31909 assessed as bacterial growth inhibition incubated for 16 to 18 hrs by broth microdilution method; type: functional; details: time 16-18 hrs
Enterococcus [4] = assay: Antibacterial activity against Enterococcus NR 31884 assessed as bacterial growth inhibition incubated for 16 to 18 hrs by broth microdilution method; type: functional; details: time 16-18 hrs
Escherichia coli [5] = assay: Antibacterial activity against Escherichia coli ATCC 25922 assessed as bacterial growth inhibition incubated for 16 to 18 hrs by broth microdilution method; type: functional; details: time 16-18 hrs
Staphylococcus aureus [6] = assay: Antibacterial activity against vancomycin-resistant Staphylococcus aureus VRS4 assessed as bacterial growth inhibition incubated for 16 to 18 hrs by broth microdilution method; type: functional; details: time 16-18 hrs
Staphylococcus aureus [7] = assay: Antibacterial activity against Staphylococcus aureus ATCC 29213 assessed as time for increase by 1 log10CFU at 10XMIC incubated for 1 hr followed by drug wash-out and measured every single 1 hr; type: functional
Enterococcus [8] = assay: Antibacterial activity against vancomycin-susceptible Enterococcus NR 31884 assessed as bacterial growth inhibition incubated for 16 to 18 hrs by broth microdilution method; type: functional; details: time 16-18 hrs
Staphylococcus aureus [9] = assay: Antibacterial activity against Staphylococcus aureus ATCC 29213 assessed as bacterial growth inhibition in presence of levofloxacin incubated for 24 hrs by checkerboard assay; type: functional
Staphylococcus aureus [10] = assay: Antibacterial activity against vancomycin-resistant Staphylococcus aureus VRS1 assessed as bacterial growth inhibition incubated for 16 to 18 hrs by broth microdilution method; type: functional; details: time 16-18 hrs
Staphylococcus aureus [11] = assay: Antibacterial activity against methicillin-resistant Staphylococcus aureus NRS 10186 assessed as bacterial growth inhibition incubated for 16 to 18 hrs by broth microdilution method; type: functional; details: time 16-18 hrs
Staphylococcus aureus [12] = assay: Antibacterial activity against Staphylococcus aureus ATCC 29213 assessed as time for increase by 1 log10CFU at 1XMIC incubated for 1 hr followed by drug wash-out and measured every single 1 hr; type: functional
Staphylococcus aureus [13] = assay: Antibacterial activity against methicillin-resistant Staphylococcus aureus NRS 10192 assessed as bacterial growth inhibition incubated for 16 to 18 hrs by broth microdilution method; type: functional; details: time 16-18 hrs
Klebsiella pneumoniae = assay: Antibacterial activity against Klebsiella pneumoniae BAA-1705 assessed as bacterial growth inhibition incubated for 16 to 18 hrs by broth microdilution method; type: functional; details: time 16-18 hrs
Staphylococcus aureus [14] = assay: Antibacterial activity against Staphylococcus aureus ATCC 29213 assessed as reduction in bacterial growth at sub-MIC incubated for more than 40 days; type: functional, organism-based; details: time day >40
Staphylococcus aureus [15] = assay: Antibacterial activity against methicillin-resistant Staphylococcus aureus NRS 10198 assessed as bacterial growth inhibition incubated for 16 to 18 hrs by broth microdilution method; type: functional; details: time 16-18 hrs
Staphylococcus aureus [16] = assay: Antibacterial activity against methicillin-resistant Staphylococcus aureus NRS 10129 assessed as bacterial growth inhibition incubated for 16 to 18 hrs by broth microdilution method; type: functional; details: time 16-18 hrs
Staphylococcus aureus [17] = assay: microbe, parasite or virus in culture; details: ATCC 29213
Description: Antibacterial activity against Staphylococcus aureus ATCC 29213 assessed as bacterial growth inhibition incubated for 16 to 18 hrs by broth microdilution method

[18] = Selectivity index, ratio of CC50 for cytotoxicity against African green monkey Vero cells to MIC for antibacterial activity against Staphylococcus aureus ATCC 29213; type: toxicity, cell-based; details: read-out: Selectivity Index
Enterococcus [19] = assay: Antibacterial activity against vancomycin-susceptible Enterococcus NR 31888 assessed as bacterial growth inhibition incubated for 16 to 18 hrs by broth microdilution method; type: functional; details: time 16-18 hrs
[20] = Cytotoxicity against African green monkey Vero cells incubated for 72 hrs by MTT assay; type: cell-based; details: chlorocebus sabaeus
Escherichia coli [21] = assay: Antibacterial activity against Escherichia coli ATCC 25922 assessed as bacterial growth inhibition in presence of outermembrane permeabilizer, PMBN incubated for 16 to 18 hrs by broth microdilution method; type: functional; details: time 16-18 hrs
Staphylococcus aureus [22] = assay: Antibacterial activity against Staphylococcus aureus ATCC 29213 assessed as bacterial growth inhibition in presence of daptomycin incubated for 24 hrs by checkerboard assay; type: functional
Staphylococcus aureus [23] = assay: Antibacterial activity against Staphylococcus aureus ATCC 29213 assessed as bacterial growth inhibition in presence of rifampicin incubated for 24 hrs by checkerboard assay; type: functional
Staphylococcus aureus [24] = assay: Antibacterial activity against Staphylococcus aureus ATCC 29213 assessed as fractional inhibitory concentration in presence of rifampicin incubated for 24 hrs by checkerboard assay; type: functional
Staphylococcus aureus [25] = assay: Bactericidal activity against Staphylococcus aureus ATCC 29213 assessed as reduction in bacterial load at 10X MIC preincubated for 1 hr followed by subculturing on TSA plate for 18 to 20 hrs by time-kill assay; type: functional; details: time 19-21 hrs
Staphylococcus aureus [26] = assay: Antibacterial activity against Staphylococcus aureus ATCC 29213 assessed as bacterial growth inhibition in presence of ceftazidime incubated for 24 hrs by checkerboard assay; type: functional
Staphylococcus aureus [27] = assay: Antibiofilm activity against Staphylococcus aureus ATCC 29213 assessed as reduction in preformed bacterial biofilm at 10XMIC incubated for 24 hrs by crystal violet staining based microtiter plate reader assay; type: functional
Staphylococcus aureus [28] = assay: Antibacterial activity against Staphylococcus aureus ATCC 29213 assessed as bacterial growth inhibition in presence of minocycline incubated for 24 hrs by checkerboard assay; type: functional
Staphylococcus aureus [29] = assay: Antibacterial activity against Staphylococcus aureus ATCC 29213 assessed as bacterial growth inhibition in presence of linezolid incubated for 24 hrs by checkerboard assay; type: functional
Staphylococcus aureus [30] = assay: Synergistic antibacterial activity against multidrug-resistant methicillin resistant Staphylococcus aureus NRS 10119 assessed as reduction in bacterial load at 1X MIC preincubated for 24 hrs in presence of gentamycin followed by subculturing on TSA plate for 18 to 20 hrs by time-kill assay; type: functional; details: time 42-44 hrs
Enterococcus [31] = assay: Antibacterial activity against vancomycin-susceptible Enterococcus NR 31886 assessed as bacterial growth inhibition incubated for 16 to 18 hrs by broth microdilution method; type: functional; details: time 16-18 hrs
Enterococcus [32] = assay: Antibacterial activity against vancomycin-resistant Enterococcus NR 31903 assessed as bacterial growth inhibition incubated for 16 to 18 hrs by broth microdilution method; type: functional; details: time 16-18 hrs
Staphylococcus aureus [33] = assay: Antibacterial activity against Staphylococcus aureus ATCC 29213 assessed as fractional inhibitory concentration in presence of vancomycin incubated for 24 hrs by checkerboard assay; type: functional
Acinetobacter baumannii = assay: Antibacterial activity against Acinetobacter baumannii BAA-1605 ssessed as bacterial growth inhibition in presence of outermembrane permeabilizer, PMBN incubated for 16 to 18 hrs by broth microdilution method; type: functional; details: time 16-18 hrs
Staphylococcus aureus [34] = assay: Antibacterial activity against Staphylococcus aureus ATCC 29213 assessed as fractional inhibitory concentration in presence of levofloxacin incubated for 24 hrs by checkerboard assay; type: functional
Staphylococcus aureus [35] = assay: Bactericidal activity against Staphylococcus aureus ATCC 29213 assessed as reduction in bacterial load at 10X MIC preincubated for 6 hrs followed by subculturing on TSA plate for 18 to 20 hrs by time-kill assay; type: functional; set-up: scale not given: the % may be the effect or the level left; details: time 24-26 hrs
Pseudomonas aeruginosa = assay: Antibacterial activity against Pseudomonas aeruginosa ATCC 27853 assessed as bacterial growth inhibition incubated for 16 to 18 hrs by broth microdilution method; type: functional; details: time 16-18 hrs
Staphylococcus aureus [36] = assay: Antibacterial activity against Staphylococcus aureus ATCC 29213 assessed as fractional inhibitory concentration in presence of ceftazidime incubated for 24 hrs by checkerboard assay; type: functional

In the case of CC(C)=CCc1c(O)cc2oc(-c3ccc(O)cc3O)c(CC=C(C)C)c(=O)c2c1O [CUDRAFLAVONE C], the FIC (Staphylococcus aureus [1]) is reported as 1.5, the Time (Staphylococcus aureus [2]) is reported as over 22 h and the MIC (Enterococcus [3]) is reported as 4 µg/mL (≈ 9.47 µM). The MIC (Enterococcus [4]) was 4 µg/mL (≈ 9.47 µM), the MIC (Escherichia coli [5]) was over 64 µg/mL and the MIC (Staphylococcus aureus [6]) was 4 µg/mL (≈ 9.47 µM). For the same compound, the Time (Staphylococcus aureus [7]) was over 24 h, the MIC (Enterococcus [8]) was 4 µg/mL (≈ 9.47 µM) and the MIC (Staphylococcus aureus [9]) was 2 µg/mL. It also gave an MIC (Staphylococcus aureus [10]) of 4 µg/mL (≈ 9.47 µM), an MIC (Staphylococcus aureus [11]) of 4 µg/mL (≈ 9.47 µM) and a Time (Staphylococcus aureus [12]) of 4 h. For the same compound, the MIC (Staphylococcus aureus [13]) was 4 µg/mL (≈ 9.47 µM), the MIC (Klebsiella pneumoniae) was over 64 µg/mL and the Activity (Staphylococcus aureus [14]) was “Active”. It also gave an MIC (Staphylococcus aureus [15]) of 4 µg/mL (≈ 9.47 µM), an MIC (Staphylococcus aureus [16]) of 4 µg/mL (≈ 9.47 µM) and an MIC (Staphylococcus aureus [17]) of 2 µg/mL (≈ 4.73 µM). The selectivity ratio [18] was 25, the MIC (Enterococcus [19]) was 4 µg/mL (≈ 9.47 µM) and the CC50 at 72 h [20] was 50 µg/mL (≈ 118 µM). The MIC (Escherichia coli [21]) was 1 µg/mL, the MIC (Staphylococcus aureus [22]) was 2 µg/mL and the MIC (Staphylococcus aureus [23]) was 2 µg/mL. It also gave an FIC (Staphylococcus aureus [24]) of 1.5, an Activity (Staphylococcus aureus [25]) of 5 log10CFU/ml and an MIC (Staphylococcus aureus [26]) of 2 µg/mL. For the same compound, the “inhibition (INH)” value (Staphylococcus aureus [27]) was 30.4%, the MIC (Staphylococcus aureus [28]) was 2 µg/mL and the MIC (Staphylococcus aureus [29]) was 2 µg/mL. The Activity (Staphylococcus aureus [30]) was 6 log10CFU/ml, the MIC (Enterococcus [31]) was 4 µg/mL (≈ 9.47 µM) and the MIC (Enterococcus [32]) was 4 µg/mL (≈ 9.47 µM). The FIC (Staphylococcus aureus [33]) was 1.5, the MIC (Acinetobacter baumannii) was 4 µg/mL and the FIC (Staphylococcus aureus [34]) was 1.5. For the same compound, the Activity (Staphylococcus aureus [35]) was 100%, the MIC (Pseudomonas aeruginosa) was over 64 µg/mL and the FIC (Staphylococcus aureus [36]) was 1.5.
